Converted amounts (≈) assume the structure as drawn. Where two headings read alike, the source gives them in different places.
Legend:
[1] = tested on: staphylococcus aureus (ST AU) CHP; experiment: agar serial dilution MIC, ST AU CHP; type: cell-based; conditions: ST AU strain CHP
Source text: (§1) The compounds of this invention are antibacterials effective against gram-positive and gram-negative test organisms as well as penicillin resistant staphylococcus at an inhibitory concentration at or below 250 micrograms per milliliter using the well-known and scientifically accepted agar serial dilution technique. […] Thus, the compounds of this invention are useful in the fields of comparative pharmacology and microbiology and may be used in the treatment of bovine mastitis, as growth promotors in animals and for the treatment of infections amenable to treatment with penicillins and cephalosporins.
(§2) The following examples are presented for purposes of illustration and should not be construed as limitations upon the true scope of this invention.
(§3) St au -- staphylococcus aureus

[2] = tested on: bordetella brochiseptica (BO BR) 4617; experiment: agar serial dilution MIC, BO BR 4617; type: cell-based; conditions: BO BR strain 4617
Source text: as §1, §2
Bo br -- bordetella brochiseptica

[3] = tested on: bacillus subtilis (BA SU) 663; experiment: agar serial dilution MIC, BA SU 663; type: cell-based; conditions: BA SU strain 663
Source text: as §1, §2
Ba su -- bacillus subtilis

[4] = tested on: salmonella typhosa (SA TY) SAD-12; experiment: in vivo curative dose in infected mice, SA TY SAD-12; conditions: subcutaneous at zero time and 6 hours after i.p. infection, 14 days, mg per mouse, average of several tests
Method: (§4) The in vivo activity of the antibacterial agents of this invention was established by subcutaneously administering a dose of the compound being tested at zero time and 6 hours after infection to a randomized group of mice which had been infected with a specific infective agent, such as Escherichia coli, etc., via intraperitoneal injection of 0.5 milliliters of the infective agent in 5 per cent gastric mucin. The mice were then observed for 14 days and any deaths were recorded daily. The curative dose (CD50) was then reported in terms of the milligrams per mouse needed for […] of the infective agent.
Sa ty -- salmonella typhosa

[5] = tested on: proteus mirablis (PR MI) PR-3; experiment: in vivo curative dose in infected mice, PR MI PR-3; conditions: subcutaneous at zero time and 6 hours after i.p. infection, 14 days, mg per mouse, average of several tests
Method: as §4
Pr mi -- proteus mirablis

[6] = tested on: salmonella paratyphi (SA PA) 11737; experiment: agar serial dilution MIC, SA PA 11737; type: cell-based; conditions: Salmonella enterica
Source text: as §1, §2
Sa pa -- salmonella paratyphi

[7] = tested on: shigella sonnei (SH SO) SH-1; experiment: in vivo curative dose in infected mice, SH SO SH-1; conditions: subcutaneous at zero time and 6 hours after i.p. infection, 14 days, mg per mouse, average of several tests
Method: as §4

[8] = tested on: klebsiella pneumoniae (KL PN) 10031; experiment: agar serial dilution MIC, KL PN 10031; type: cell-based; conditions: KL PN strain 10031
Source text: as §1, §2
Kl pn -- klebsiella pneumoniae

[9] = tested on: escherichia coli (ES CO) 920; experiment: in vivo curative dose in infected mice, ES CO 920; conditions: subcutaneous at zero time and 6 hours after i.p. infection, 14 days
Method: as §4
(§5) Es co -- escherichia coli

[10] = tested on: escherichia intermedia (ES IN) 65-1; experiment: agar serial dilution MIC, ES IN 65-1; type: cell-based; conditions: Citrobacter intermedius, ES IN strain 65-1
Source text: as §1, §2
Es in -- escherichia intermedia

[11] = tested on: staphylococcus aureus (ST AU) 6538P; experiment: agar serial dilution MIC, ST AU 6538P; type: cell-based
Source text: as §1, §2, §3

[12] = tested on: staphylococcus aureus (ST AU) 53-180; experiment: agar serial dilution MIC, ST AU 53-180; type: cell-based
Source text: as §1, §2, §3

[13] = tested on: escherichia coli (ES CO) 9637; experiment: agar serial dilution MIC, ES CO 9637; type: cell-based; conditions: ES CO strain 9637
Source text: as §1, §2, §5

[14] = tested on: staphylococcus aureus (ST AU) Smith; experiment: agar serial dilution MIC, ST AU Smith; type: cell-based
Source text: as §1, §2, §3

[15] = tested on: neisseria catarrhalis (NE CA) 8193; experiment: agar serial dilution MIC, NE CA 8193; type: cell-based; conditions: NE CA strain 8193
Source text: as §1, §2
Ne ca -- neisseria catarrhalis

[16] = tested on: staphylococcus aureus (ST AU) Smith; experiment: in vivo curative dose in infected mice, ST AU Smith; conditions: subcutaneous at zero time and 6 hours after i.p. infection, 14 days, mg per mouse, average of several tests
Method: as §4, §3

[17] = tested on: proteus vulgaris (PR VU) 6896; experiment: agar serial dilution MIC, PR VU 6896; type: cell-based; conditions: PR VU strain 6896
Source text: as §1, §2
Pr vu -- proteus vulgaris

EN AE 13048 = experiment: agar serial dilution MIC, EN AE 13048; type: cell-based; conditions: EN AE strain 13048
Source text: as §1, §2

[18] = agar serial dilution, ST AU strain 6538P, read-out: MIC
[19] = agar serial dilution, ST AU strain 53-180, read-out: MIC
[20] = agar serial dilution, ST AU strain Smith, read-out: MIC

Row | SMILES | MIC [1] [µg/mL] | MIC [2] [µg/mL] | MIC [3] [µg/mL] | MIC [6] [µg/mL] | MIC [8] [µg/mL] | MIC [10] [µg/mL] | MIC [11, 18] [µg/mL] | MIC [12, 19] [µg/mL] | MIC [13] [µg/mL] | MIC [14, 20] [µg/mL] | MIC [15] [µg/mL] | MIC [17] [µg/mL] | further results
1 | CC(=O)OCC1=C(C(=O)O)N2C(=O)C(NC(=O)CNC(=S)SCC(=O)O)C2SC1 (stereo not drawn) [Example 1, 7-[2-(Dithiocarboxyamino)acetamido]cephalosporanic acid N-carboxymethyl ester] | 3.9 (≈ 8.41 µM) | 15.6 (≈ 33.7 µM) | 0.244 (≈ 0.526 µM) | 7.81 (≈ 16.8 µM) | 31.3 (≈ 67.5 µM) | 250 (≈ 539 µM) | 0.976 (≈ 2.11 µM) | 3.9 (≈ 8.41 µM) | 62.5 (≈ 135 µM) | 0.976 (≈ 2.11 µM) | 250 (≈ 539 µM) | 15.6 (≈ 33.7 µM) | in vivo curative dose (CD50) [4]: 1.41 mg; in vivo curative dose (CD50) [5]: 1.96 mg; in vivo curative dose (CD50) [7]: 2.66 mg; in vivo curative dose (CD50) ([9]; mg per mouse, average of several tests, ES CO 920): 4.48 mg; in vivo curative dose (CD50) [16]: 4.37 mg
2 | CC(=O)OCC1=C(C(=O)O)N2C(=O)C(NC(=O)CCNC(=S)SCC(=O)O)C2SC1 (stereo not drawn) [Example 2, 7-[3-(Dithiocarboxyamino)propionamido]cephalosporanic acid N-carboxymethyl ester] | 3.9 (≈ 8.17 µM) | 7.81 (≈ 16.4 µM) | 0.488 (≈ 1.02 µM) | 0.976 (≈ 2.04 µM) | 31.3 (≈ 65.5 µM) | – | – | 3.9 (≈ 8.17 µM) | 15.6 (≈ 32.7 µM) | – | 125 (≈ 262 µM) | 1.95 (≈ 4.08 µM) | MIC [11]: 0.976 µg/mL (≈ 2.04 µM); MIC [14]: 0.976 µg/mL (≈ 2.04 µM)
3 | CC(=O)OCC1=C(C(=O)O)N2C(=O)C(NC(=O)C(NC(=S)SCC(=O)O)c3ccccc3)C2SC1 (stereo not drawn) [Example 3, 7-[2-(Dithiocarboxyamino)phenylacetamido]cephalosporanic acid N-carboxymethyl ester] | 31.3 (≈ 58 µM) | 125 (≈ 232 µM) | 3.9 (≈ 7.23 µM) | 15.6 (≈ 28.9 µM) | 31.3 (≈ 58 µM) | 250 (≈ 463 µM) | 7.81 (≈ 14.5 µM) | – | 31.3 (≈ 58 µM) | 7.81 (≈ 14.5 µM) | 250 (≈ 463 µM) | 7.81 (≈ 14.5 µM) | CD50 ([9]; ES CO-920): 6.0 milligrams/mouse; MIC [12]: 15.6 µg/mL (≈ 28.9 µM); MIC (EN AE 13048): 250 µg/mL (≈ 463 µM)

Source: patent publication US3944580A, “7-[2-(Dithiocarboxylamino)alkanamido]-cephalosporanic acid derivatives” (American Home Products Corporation, priority 1974, dated 1976)
